Reference: patent publication US8507440B2, “Protein kinase C peptides for use in withdrawal” (The Board of Trustees of the Leland Stanford Junior …, priority 2002, dated 2013)
Ends that are not written are not given here.

Assays:
[1] = test system: isolated spinal cords; test: slow ventral root potential (sVRP) of isolated spinal cord, naloxone-precipitated morphine withdrawal hyperresponsiveness; type: cell-based, rat
Excerpt: The slow ventral root potential (sVRP) is an electrophysiolgical measurement of nociceptive-related response in the spinal cord lasting approximately 40 seconds (Yanagisawa et al., Eur. J. Pharmacol., 106:231-239 (1984); Akagi H. et al., British J. Pharmacol., 84:663-673 (1985); Otsuka M. et al., J. Physiol., 395:255-270 (1988)). It is evoked by stimulation of a lumbar dorsal root at an intensity sufficient to activate small diameter afferents that transmit nociceptive (painful) stimuli from the periphery to the spinal cord (Lozier A. P. et al., J. Neurophysiol., 74:1001-1009 (1995)). […] Thus, the sVRP is related to pain, and its exaggeration following naloxone is a manifestation of withdrawal which translates to an increase in pain sensation in vivo.
Spinal cords from 4-7 day old rats (Charles River Laboratories) were removed and arranged for electrophysiological recording of the slow ventral root potentials (sVRP) (Woodley S. J., et al., Brain Res., 559:17-21 (1991). Briefly, pups were decapitated under halothane anesthesia and the spinal cord removed to an oxygenated artificial cerebrospinal fluid solution. A suction stimulating electrode was placed on a lumbar dorsal root and a suction recording electrode on the corresponding ipsilateral ventral root. Square wave stimuli 0.2 ms in duration were administered at a constant frequency of 1/50 seconds throughout the experiment. Test agents were applied and the responses were recorded, digitized, and area under the curve measured.
After a baseline reading of the sVRP, morphine (200 nM) was applied to the isolated spinal cords. The sVRP was again recorded to characterize the response to morphine. Naloxone (200 nM) was then applied and the sVRPs recorded.
FIGS. 2A-2D show the results after application of non-specific PKC antagonist, GF109203X (1.2 μM), and of an inhibitor specific to Ca++-dependent PKC isoforms, Go6976 (1 μM).
FIGS. 3A-3B show the results after application of the εPCK antagonist (εV1-2; SEQ ID NO:1, 2 nM), conjugated to a peptide carrier (Tat; SEQ ID NO:3) and the Tat peptide alone (2 nM; SEQ ID NO:3). FIGS. 3C-3D show the results after application of γPKC (γV5-3; SEQ ID NO:2, 4 nM) conjugated to a peptide carrier (Tat; SEQ ID NO:3) and of the Tat peptide alone (4 nm; SEQ ID NO:3).

[2] = test system: postnatal day 7 rats; test: naloxone-precipitated morphine withdrawal, mechanical threshold and thermal paw withdrawal latency in vivo; parameters: species or system rat; conditions: 10 μM in 5 μl intrathecally prior to morphine 1 mg/kg s.c.; naloxone 0.25 mg/kg 30 min after morphine
Description: In vivo studies on opiate withdrawal allodynia and hyperalgesia were conducted using postnatal day 7 rats. As described in Example 2, postnatal day 7 rats were given morphine subcutaneously followed 30 minutes later by naloxone or saline. Mechanical threshold using von Frey filaments to produce the flexion withdrawal response of the hind paw and thermal stimulation to measure the paw withdrawal latency were measured as described in Example 2.
FIG. 5A illustrates a treatment protocol where rat pups were given a PKC antagonist intrathecally (e.g., directly into the cerebrospinal fluid surrounding the spinal cord) prior to subcutaneous morphine delivery. Thirty minutes after morphine delivery, naloxone was administered, followed by mechanical allodynia and thermal hyperalgesia testing (as described in Example 2).
Postnatal day 7 Sprague-Dawley rats (Charles River Laboratories) of both sexes were used. For all behavioural experiments rats were maintained at nesting temperature with overhead heatlamps.
To measure mechanical thresholds, rats were placed on an elevated wire mesh (2 mm openings). Von Frey hairs (Stoelting Co., WoodDale, Ill., USA) were used to elicit a cutaneous flexion withdrawal response as described by Fitzgerald et al. (Fitzgerald M., et al., PAIN […] INFANTS, CHILDREN AND ADOLESCENTS; Schetchter and Yaster, Eds., pp 11-32, Williams and Williams (Baltimore, Md.) (1993). Von Frey hairs of increasing intensity were applied three times to the plantar surface of the left hind paw until a paw withdrawal was elicited. The lowest intensity Von Frey hair required to produce a withdrawal reflex was recorded as the response threshold to a low-intensity mechanical stimulus.
Thermal paw withdrawal latencies were measured using the Ugo Basile Plantar Testing apparatus (Stoelting Co., WoodDale, Ill., USA). Briefly, postnatal day 7 rats were placed under inverted Plexiglas enclosures and the plantar surface of the left hindpaw was heated from below with the IR intensity of the lamp set at 30. Two baseline thermal response latency measures were collected prior to morphine administration with a cut-off of 20 seconds enlisted to prevent tissue damage.
Postnatal day 7 rats were administered 1 mg/kg morphine sulfate (Sigma) subcutaneously in 50 μl saline. Mechanical thresholds were measured 15 minutes later to establish analgesia. Rats were returned to their dam. At 30 or 120 minutes post morphine, rats were administered 0.25 mg/kg naloxone (Sigma) subcutaneously in 50 μl saline. Mechanical thresholds and thermal paw withdrawal latencies were measured in 10 minute intervals. Tat conjugated peptide inhibitors specific to the ε (εV1-2; SEQ ID NO:1, 10 μM) and γ ([…]; SEQ ID NO:2, 10 μM) isoforms of PKC, Tat carrier (10 μM), or saline were administered in 5 μl volumes intrathecally via direct lumbar puncture using a sterile 29 gauge 3/10 cc insulin syringe in rats lightly anesthetized with halothane. To allow for complete recovery from anesthetic, animals were administered peptides or control solutions 30 minutes prior to naloxone.
An unpaired T-test was used to determine the significance of post-naloxone measures from baseline measures. Significance between treatment groups for PKC inhibitor studies both in vivo and in vitro was determined by one way analysis of variance (ANOVA) followed by a post-hoc Bonferroni analysis. P-values<0.05 were considered significant. All statistical analysis was done with GraphPad Prism version 3.02.

[3] = test system: 7 day old and 21 day old rats; test: ethanol withdrawal mechanical allodynia testing (von Frey threshold withdrawal force); type: in vivo, rat

For “RLVLAS (also: Tat peptide conjugate; listed as Homo sapiens) [γV5-3]”, the “effect on sVRP of inhibitor alone” value ([1]; absence of morphine) was “did not significantly altered the sVRP”, the “block of naloxone-precipitated withdrawal hyperresponsiveness of sVRP” value ([1]; morphine 200 nM then naloxone 200 nM, GF109203X 1.2 μM, Go6976 1 μM, εV1-2 2 nM, γV5-3 4 nM, Tat 2-4 nM) was “reduced withdrawal hyperresponsiveness, but not to a significantly greater amount than the Tat carrier vehicle alone” and the “block of naloxone-precipitated morphine withdrawal allodynia and hyperalgesia” value [2] was “had a smaller blocking effect”. The “mechanical allodynia, threshold withdrawal force” value ([3]; 7 day old rats, 5 μL of 20 μM intrathecally 5 hours after 4 g/kg 15% EtOH i.p., 6 and 7 hour post-EtOH, versus Tat carrier) was “attenuated mechanical allodynia” and the “mechanical allodynia, threshold withdrawal response” value ([3]; 21 day old rats, 10 μL of 20 μM intrathecally 4 hours after 4 g/kg 15% EtOH i.p.) was “prevented a decrease in threshold withdrawal response”.
